Source: patent US9617541B2, “Biocompatible infinite coordination polymer nanoparticle-nucleic acid conjugates for antisense gene regulation” (NORTHWESTERN UNIVERSITY, priority 2014, dated 2017)

Assay: Solubility observations
Assay type: physicochemical
Method: To a 100 mL round-bottomed flask with a magnetic stirrer was added (2) (5.90 g, 22.67 mmol), maltol (3.57 g, 28.34 mmol), and 30 mL of acidic 2-ethoxyethanol (49:1 ethoxyethanol/12M HCl). The reaction vessel was fitted with a water-cooled condenser and the mixture heated to reflux for 64 h. The resulting suspension was vacuum-filtered while hot and the solids washed with water (50 mL), followed by acetone (50 mL), to afford the crude product as a fine brown solid. […] HRMS-ESI (m/z): [M+H]^+ calculated for C19H17N2O6 369.1081. found 369.1084.
In a typical experiment, an aqueous stock solution of DABA-bis-HP-N3 was prepared consisting of 2.28 mM ligand and 24.5 mM NaOH. […] A stock solution of Fe(NO3)3.9H2O was prepared consisting of 10.80 mM Fe^3+ and 4 mM HCl (as stabilizer). To a glass vial was added 877 μL ligand stock solution, followed by 1 mL Milli-Q H2O, followed by 123 μL Fe(III) stock and the resulting orange-red mixture (2 mL) shaken for 10 minutes. The as-synthesized particles have a mean diameter ranging from 10-20 nm (DLS). Particles were purified by filtration through an Amicon Ultra 15 mL centrifugal filter with a nominal molecular weight cutoff (MWCO) of 100 kDa, washing with 3×3 mL portions of Milli-Q H2O, spinning at 5000 rcf for 10 minutes each. The particles were resuspended in 2 mL of H2O to give an approximate azide concentration of 1 mM. The particle solution was lyophilized and the resulting dark red powder characterized by FTIR (KBr), showing the characteristic azide stretch at 2093 cm^−1 is retained after the nanoparticle synthesis.

Row | Compound | solubility in hot DMSO and DMF (hot DMSO and DMF) | solubility in methanol (methanol) | solubility in water (water, as disodium salt)
1 | Cc1c(O)c(=O)ccn1-c1cc(C(=O)O)cc(-n2ccc(=O)c(O)c2C)c1 [compound 3, Diaminobenzoic Acid Bis-Hydroxypyridinone] | soluble | sparingly soluble | 
2 | Cc1c(O)c(=O)ccn1-c1cc(C(=O)NCCCCN=[N+]=[N-])cc(-n2ccc(=O)c(O)c2C)c1 [compound 4, Diaminobenzoic Acid Bis-HP Azide] |  |  | freely soluble
